Test results reported in patent publication US20120010178A1, “METHODS AND COMPOUNDS FOR TREATMENT OF NEURODEGENERATIVE DISORDERS” (PRESIDENT AND FELLOWS OF HARVARD COLLEGE, priority 2008, published 2012).
Entries after “also recorded” stand apart in the source; their conditions may differ.

How the values were obtained:
SMN = SMN immunofluorescence quantification (cytoplasm, nucleus, GEMs) in fibroblasts from SMA patients; type: cell-based, human; conditions: SMA patient fibroblasts
In short: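 SMN immunostained and imaged by automated confocal microscopy; per-cell cytoplasmic and nuclear SMN intensity and GEM number and intensity quantified. PFA fixation used for screening.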

[1] = system: SMN1 and SMN2 transcripts; assay: qRT-PCR of SMN1 and SMN2 transcripts after PDGF-BB; type: cell-based, human; conditions: 50 ng/ml, over three days
Protocol: Although there is much more known about growth factor specificity and downstream pathways that they activate, whether PDGF effect on SMN was mediated through the binding to the PDGFR was tested next. The SMN-increasing effects of PDGF were blocked by DMPQ and […], two small molecules inhibitors of the PDGF receptor (FIG. 21a). In addition PDGF neutralizing antibody titration were performed in the cells incubated with 20 ng/ml platelet-derived PDGF. Depending on the antibody concentration, gradient of SMN level decrease reaching 40% was observed (FIG. 21b). Moreover, as might be predicted, since there are appreciable levels of PDGF in the media serum in which the fibroblasts are normally maintained, simply adding PDGFR inhibitors DMPQ and AG-1296 to the media decreases the “basal” level of SMN in these cells down to 15-20%, (FIG. 22). […]
[…] was purified using Tri-Reagent (Sigma-Aldrich) protocol and quantified on the Nanodrop (Thermo Fisher Scientific). […] Synthesised cDNA was diluted 5 times and 1 μl of cDNA sample was PCR amplified using RT^2SYBR Green/ROX PCR Master Mix and primer assays for SMN1, SMN2, GAPDH (SABiosciences) genes on 7900HT Fast Real-Time PCR System (ABI). qPCR results were analyzed with RQ Manager Software (ABI) by […] quantification method.

PDGF-BB: human recombinant PDGF-BB
levels of cytoplasmic and nuclear SMN (in words) (SMN; substance alone): strongest activator of SMN; also recorded: most potent growth factor that elevated SMN protein levels
Avg. SMN fold increase (SMN; human PDGF isoforms): 2-2.3 fold
level of SMN1 and SMN2 transcripts [1]: little or no increase in SMN transcripts
